# Measurements from US8039504B2 (priority 2003, dated 2011).
# pEC50: −log10 of the molar value.
# Assays:
# camelpox = test: microbe, parasite or virus in culture; assay type: cell-based; conditions: read-out: Camelpox EC50
# Vaccinia virus (NYCBH) = test: microbe, parasite or virus in culture; assay type: cell-based; conditions: Orthopoxvirus vaccinia, Vero, 72 h, read-out: Vaccinia EC50
# wild type cowpox virus = test: microbe, parasite or virus in culture; assay type: cell-based; conditions: read-out: Cowpox EC50
# [1] = system: monkeypox virus (Zaire (V79-1-005-scab)); test: microbe, parasite or virus in culture; assay type: cell-based; conditions: read-out: Monkeypox EC50
structure (smiles),measurement,setting,value
"O=C(NN1C(=O)[C@@H]2C3C=CC(C4CC43)[C@@H]2C1=O)c1ccc(C(F)(F)F)cc1 (stereo partly shown) [Example 1, 4-Trifluoromethyl-N-(3,3a,4,4a,5,5a,6,6a,- octahydro-1,3-dioxo-4,6-ethenocycloprop[f]isoindol-2(1H)-yl)-benzamide]",solubility,"physchem; aqueous with cosolvent or surfactant or cyclodextrin, ST-246 Solubility",68.7 µg/mL
same,solubility,"physchem; organic solvent or mixture, ST-246 Solubility",60800 µg/mL
same,solubility,"physchem; organic solvent or mixture, Solubility in organic solvents",60000 µg/mL
same,solubility,"physchem; pH 6.8, aqueous buffer, ST-246 Solubility",7 µg/mL
same,solubility,"physchem; simulated gastric fluid, ST-246 Solubility",37.5 µg/mL
same,solubility,"physchem; water, ST-246 Solubility",26 µg/mL
same,pEC50,camelpox,> 6.30
same,pEC50,Vaccinia virus (NYCBH),> 6.30
same,pEC50,wild type cowpox virus,> 6.30
same,pEC50,[1],> 6.30
